What all share (assay type): cell-based, human
The subject of experiment [1] is N1^+/− ECs. Kind of experiment: Validation trials of screen candidates by targeted RNA-seq with the trained KNN algorithm. Particulars: duplicate or triplicate; one or more replicates classified as WT. As to the method:
(§1) Starting on day 15 of differentiation, WT ECs were exposed to 10 μM DMSO (dimethyl sulfoxide) (n=80) while isogenic N1^+/− ECs were exposed to either 10 μM DMSO (n=80) or one of the small molecules from the LOPAC (1280 molecules) (Sigma LO1280) or Sheng Ding (315 molecules) chemical libraries. DMSO or small molecules were renewed with EC media (ScienCell #1001) changes on alternating days until the cells were ultimately collected for analysis on day 21. ECs were imaged using the IN Cell Analyzer on day 21 to evaluate morphology and cell death; wells with extensive cell death were eliminated from final analyses. For validation experiments, promising small molecules identified from the initial screen were applied to N1^+/− ECs in duplicate or triplicate along with controls of DMSO-exposed WT and N1^+/− ECs (n=4 each) using the same process as the initial screen described above.
(§2) ECs were lysed and RNA was isolated using the Qiagen RNeasy 96-well purification kit. RNA was diluted so that it was between the 10 pg-1 ng range accepted by the Cellular Research Precise targeted RNA-seq (RNA sequencing) system. Targeted RNA-seq libraries were prepared as per the Cellular Research Precise protocol (Rev 03092015), which includes both molecule and sample barcoding. The selected 119 target genes (see Table 1) included 3 low-expressing housekeeping genes for normalization (CHMP2A, C1orf43, REEP5) and either predicted central regulatory nodes or peripheral genes positioned within varied regions of the N1 network to permit identification of small molecules that affected central nodes as well as those that may have a synergistic effect in combination due to regulating different aspects of the network. Briefly, RNA was added to the Precise Encoding Plate containing indexed dT primer, dNTPs, and Spike-in mRNA controls and incubated at 65° C. for 3 minutes followed by cooling on ice. A master-mix of RT enzyme, RNase inhibitor, and buffer was then added to the samples, and they were incubated at 42° C. for 30 minutes followed by 80° C. for 5 minutes. Each plate of samples was combined into a single 2 ml tube and purified with AMPureXP beads. N1 PCR master-mix was added and samples were incubated for 94° C. for 2 minutes, followed by 15 cycles of 94° C. for 30 seconds, 55° C. for 3 minutes, and 68° C. for 1 minute, followed by 68° C. for 7 minutes. Samples were purified with AMPureXP beads and N2 PCR master-mix was added. Samples were incubated with the same thermal cycler program as above for 12 cycles. These final libraries were then purified with AMPureXP beads and analyzed for quality and concentration by Agilent Bioanalyzer and Illumina Library Quantification Kit (KAPA Biosystems), respectively. Libraries were normalized to equivalent concentration and pooled for paired-end 100 bp sequencing on an Illumina HiSeq 2500 instrument.
Sequencing data was analyzed using Cellular Research Precise Analysis Pipeline on the SevenBridges platform, which included analyzing sequencing quality with FASTQC, trimming adapters and filtering reads, demultiplexing based on sample barcodes, aligning reads with Bowtie 2, and determining the number of unique molecular indices per gene. Network inference was based on mutual information of gene expression from all DMSO- and small molecule-exposed samples as described in Margolin et al., BMC Bioinformatics. 2006; 7 Suppl 1:S7. Network diagram was generated using NetworkX (Hagberg et al., Exploring Network Structure, Dynamics, and Function using NetworkX. SciPy. 2008) based on network connections inferred from the small molecule screen data as described above with colors based on whole transcriptome RNA-seq gene expression of isogenic N1^+/− compared to WT ECs.
Promising small molecules were identified using either K-nearest neighbor (KNN) or hierarchical clustering algorithms. […]

Experiment [2] concerns N1^+/− iPSC-derived ECs. The experiment can be described thus: Network-based small molecule screen by targeted RNA-seq of 119 genes (KNN and hierarchical clustering). Particulars: for KNN classification of network gene expression of treated N1^+/− ECs: initial screen of 1595 small molecules, treatment day 15 to day 21 of differentiation, KNN k=2; for hierarchical clustering of transcriptional profile of treated N1-haploinsufficient ECs with WT ECs: initial screen, complete agglomeration method.
Excerpt: TALEN-engineered isogenic human iPSCs that were either WT (wild-type) or N1^+/− were derived and characterized as detailed in Theodoris et al., Cell. 2015; 160:1072-1086. Isogenic iPSCs (induced pluripotent stem cells) were differentiated into ECs as previously described (Theodoris et al., 2015; White et al., Stem Cells. 2012; 31:92-103). On day 13 of the differentiation process, ECs were greater than 90% double-positive for CD31 (BD #558068) and CD144 (#FAB9381P) by FACS (fluorescence-activated cell sorting) analysis (FIGS. 9G-H). Small molecule experiments (described below) were conducted at day 15 of differentiation.
as §1, §2
Sequencing data was analyzed using Cellular Research Precise Analysis Pipeline on the SevenBridges platform, which included analyzing sequencing quality with FASTQC, trimming adapters and filtering reads, demultiplexing based on sample barcodes, aligning reads with Bowtie 2, and determining the number of unique molecular indices per gene. Network inference was based on mutual information of gene expression from all DMSO- and small molecule-exposed samples as described in Margolin et al., BMC Bioinformatics. […]

Experiment [3] has as its system N1^+/− ECs. The experiment can be described thus: Whole transcriptome RNA-seq of N1^+/− ECs treated with network-correcting molecules. The protocol:
ECs were lysed and RNA was isolated using the Qiagen RNeasy Micro purification kit. RNA-seq libraries were constructed using the Clontech SMRTer Stranded RNA-seq Library Prep Kit for Illumina per kit protocol. Libraries were analyzed by Agilent Bioanalyzer, normalized to equivalent concentration, pooled, gel purified, and sequenced 75 bp paired-end on an Illumina NextSeq instrument with 10% PhiX.
Sequencing quality was assessed with FASTQC (located on the web by placing “www.” in front of “bioinformatics.babraham.ac.uk/projects/fastqc/”). Reads were aligned to the hg19 (Homo sapiens assembly February 2009) transcriptome and genome using the Spliced Transcripts Alignment to a Reference (STAR) Aligner (Dobin et al., Bioinformatics. 2012; 29:15-21) and differential expression was analyzed using Cuffdiff (Trapnell et al., Nat Biotechnol. 2012; 31:46-53). HOPACH was used for clustering with the correlation metric (van der Laan and Pollard; located on the web by placing “www.” in front of “bioconductor.org/packages/devel/bioc/manuals/hopach/man/hopach.pdf”. GO analyses were completed using GO-Elite and ToppGene (Chen et al., Nucleic Acids Research. 2009; 37:W305-W311; Zambon et al., Bioinformatics. 2012; 28:2209-2210). Network diagrams were generated using NetworkX (Hagberg et al., SciPy. 2008) based on network connections inferred from mRNA-seq gene expression of isogenic N1^+/− compared to WT ECs with colors based on whole transcriptome RNA-seq gene expression of DMSO- vs small molecule-treated WT and N1^+/− ECs.

Where a name gives a salt, the structure may show the parent alone.

For the compound `O[C@@](CCN1CCCCC1)(c1ccccc1)[C@@H]1CC2C=CC1C2` (mixture of isomers) [Biperiden_hydrochloride], in experiment [1], the “KNN classification of treated N1^+/− ECs in validation trials” value (“KNN classification of treated N1^+/− ECs” below) is recorded as “classified as WT”.
Take `CCCCC[C@H](O)/C=C/[C@H]1[C@H](O)CC(=O)[C@@H]1CCCCCCC(=O)O` [Alprostadil]: the “KNN classification of network gene expression of treated N1^+/− ECs” value in experiment [2] was “classified as WT”.
In the case of `CC(/C=C/c1cccc(Oc2ccc(F)cc2)c1)N(O)C(N)=O` (centres unmarked) [BWB70C], the “hierarchical clustering of transcriptional profile of treated N1-haploinsufficient ECs with WT ECs” value (from here on “hierarchical clustering”) in experiment [2] is recorded as “cluster with WT ECs”.
As for `NC(=O)c1cc(N2CC2)c([N+](=O)[O-])cc1[N+](=O)[O-]` [CB_1954, 5-(1-aziridinyl)-2,4-dinitrobenzamide], the “KNN classification of network gene expression of treated N1^+/− ECs” value in experiment [2] is recorded as “classified as WT”. Moreover, the “KNN classification of treated N1^+/− ECs” value in experiment [1] was “classified as WT”.
`C=C1[C@@H](O)C2/C=C/C[C@H](C)CCCC(=O)/C=C/C(=O)O[C@]23CN[C@@H](Cc2ccccc2)[C@@H]3[C@@H]1C` (some centres unmarked) [Cytochalasin]: in experiment [3] (FIG. 2A), the “effect on dysregulation of cell motility genes” value is on record as “worsened the dysregulation”; the “repression of genes aberrantly activated in N1-haploinsufficient ECs” value was “effective at downregulating arterial thrombosis and T cell signal genes”. Besides, the “repressive effect on cadherin-11 mRNA expression” value in experiment [3] (FIG. 9A) is on record as “strongest repressive effect”. Besides, the “KNN classification of network gene expression of treated N1^+/− ECs” value in experiment [2] is given as “classified as WT”. Moreover, the “KNN classification of treated N1^+/− ECs” value in experiment [1] was “classified as WT”.
With `CC(C)C[C@H](NC(=O)OCC1c2ccccc2-c2ccccc21)C(=O)O` [Fmoc-leu, Fmoc-Leucine], in experiment [2], the “KNN classification of network gene expression of treated N1^+/− ECs” value is listed as “classified as WT”. For the same compound, in experiment [1], the “KNN classification of treated N1^+/− ECs” value is reported as “classified as WT”.
For the compound `Cc1ccnc(NS(=O)(=O)c2ccc(NC(=O)Nc3ccc(S(=O)(=O)Nc4nccc(C)n4)cc3)cc2)n1` [GSK837149A], the “restoration of transcription of genes repressed in N1-haploinsufficient ECs” value in experiment [3] (FIG. 2A) was “restored transcription of a complementary group of genes involved in angiogenesis and cardiovascular development”. Moreover, the “restoration of the N1-dependent network as a whole” value in experiment [3] (FIGS. 2E, 3A) was “restored more complementary genes to XCT790”. The “KNN classification of network gene expression of treated N1^+/− ECs” value in experiment [2] is “classified as WT”. For the same compound, in experiment [1], the “KNN classification of treated N1^+/− ECs” value is listed as “classified as WT”.
For `OC1(c2ccc(Cl)cc2)CCN(Cc2c[nH]c3ccccc23)CC1` [L-741,626], the “KNN classification of network gene expression of treated N1^+/− ECs” value in experiment [2] is reported as “classified as WT”.
On the same count and under the same terms, the same measure for `C=CCN1CC[C@]23c4c5ccc(O)c4O[C@H]2/C(=N/NC(=O)c2ccccc2)CC[C@@]3(O)[C@H]1C5` [Naloxone benzoylhydrazone]: “classified as WT”.
As for `CCn1cc(C(=O)O)c(=O)c2cc(F)c(N3CCNCC3)cc21` [Norfloxacin], in experiment [2], the “KNN classification of network gene expression of treated N1^+/− ECs” value is recorded as “classified as WT”.
Consider `NCCCCN` [Putrescine dihydrochloride, Butane-1,4-diamine], for which the “KNN classification of treated N1^+/− ECs” value in experiment [1] is “classified as WT”.
In the case of `CC(C)(C(=O)NCC(F)(F)C(F)(F)F)C(=O)N[C@@H]1C(=O)Nc2ccccc2-c2ccccc21` [RO-4929097], in experiment [2], the “KNN classification of network gene expression of treated N1^+/− ECs” value is “classified as WT”. Also, the “KNN classification of treated N1^+/− ECs” value in experiment [1] is “classified as WT”.
In the case of `CC(C)(C)NCC(O)c1ccccc1Cl` (centres unmarked) [Tulobuterol_hydrochloride, tulobuterol hydrochloride], the “KNN classification of network gene expression of treated N1^+/− ECs” value in experiment [2] is given as “classified as WT”.
For `OCc1ccc(-c2nn(Cc3ccccc3)c3ccccc23)o1` [YC-1], the “KNN classification of network gene expression of treated N1^+/− ECs” value in experiment [2] is on record as “classified as WT”.
Take `C=CCc1ccccc1OCC(O)CNC(C)C` (centres unmarked) [alprenolol]: the “hierarchical clustering” value in experiment [2] is “cluster with WT ECs”.
As for `CCCCc1oc2ccccc2c1C(=O)c1cc(I)c(OCCN(CC)CC)c(I)c1` [amiodarone], the “hierarchical clustering” value in experiment [2] is recorded as “cluster with WT ECs”.
Regarding `C[N+](C)(C)CCOC(N)=O` [carbachol], the “hierarchical clustering” value in experiment [2] is “cluster with WT ECs”.
Same read-out and setting: as for `Cc1ccc(N(CC2=NCCN2)c2cccc(O)c2)cc1` [phentolamine mesylate], the entry is “cluster with WT ECs”.
In the case of `CN1C(C(=O)Nc2ccccn2)=C(O)c2ccccc2S1(=O)=O` [piroxicam], the “hierarchical clustering” value in experiment [2] was “cluster with WT ECs”.
